What was measured:
metastasis = details: literature (Sun et al. 2013; Smith et al. 2004); cited from earlier work
chondrosarcoma cells = test: CyQUANT cell proliferation assay; format: cell-based, human
Procedure: (§1) Cell lines: Human primary chondrocytes and chondrosarcoma cell lines were cultured as previously described (Kulshreshtha et al., Cell Cycle. 2007; 6:1426-1431). CS-1 (a gift from Dr. Francis Hornicek, Harvard Medical School, Boston, Mass.) was cultured in Gibco RPMI 1640 Medium (Life Technologies, Grand Island, N.Y.), with 10% FBS in a humidified incubator (NuAire Inc, Plymouth, Minn.) under 5% CO2 and either normoxia (ambient oxygen) or hypoxia (2% O2)(11). CS-1 was derived from human grade III chondrosarcoma and metastasizes in a xenograft mouse model(Susa M, Morii T, Yabe H, Horiuchi K, Toyama Y, Weissbach L, et al. Alendronate inhibits growth of high-grade chondrosarcoma cells. Anticancer Res. 2009 June; 29(6):1879-88.). All cells were cultured in a humidified incubator (NuAire Inc, Plymouth, Minn., USA) under 5% CO2 and either normoxia or hypoxia (2% O2) (Lin et al., J Orthop Res. 2004; 22:1175-1181).
Cell proliferation assay: CyQUANT® Cell Proliferation Assay Kit according to manufacturer's protocol

VEGF [1] = test: ELISA of VEGF expression in chondrosarcoma cells after transfection; format: cell-based, human
Procedure: as §1
Transfections were performed with GenMute transfection reagent (SignaGen Laboratories, Gaithersburg, Md.). pmiRZIP lentivector expressing anti-miR-181a or control sequence (SBI, Mountain View, Calif.) was used for permanent miR-181a knockdown experiments. Transduction-ready FIV-based pseudoviral particles were generated using pPACK-H1 Lentivector Packaging System together with 293TN cell line (SBI), at a titer of 1.06×10^9 IFU/ml. Control was Lenti-scramble Hairpin control pseudoviral particles at a titer of 1×10^9 IFU/ml. Cells were cultured in 12-well plates at a density of 1×10^5/well for 1 day, infected by pseudoviral particles (using a multiplicity of infection of 100 viruses per cell) and cultured for 72 hrs, then selected for puromycin (5 μg/ml) resistance for stable cell lines. Stably transduced cells were used for vitro and in vivo experiments.
ELISA: Conditioned medium was obtained 72 hours after transfection. Soluble VEGF-165 and MMP1 were detected using VEGF and MMP1 Immunoassay kits (R&D Systems, Minneapolis, Minn.) according to manufacturer's instructions. VEGF-165 and MMP1 levels were measured two times for each condition and with normalization to the number of cells at the end of the culture period. Each experiment was repeated three times. Twenty mg of xenograft tumor tissue in RIPA buffer containing proteinase inhibitors (Roche) was homogenized on ice using TissueRuptor (Qiagen). Tissue lysates were centrifuge at 14000 rpm for 30 min, supernatant saved at −80° C. for later use. VEGF-165 levels in xenograft tumor lysates were normalized to total protein.

SSX1 = test: qRT-PCR of SSX1 mRNA in chondrosarcoma cells; format: cell-based, human; details: 20 nM; vs control cells or anti-miR-34a; FIG. 10A
Procedure: qRT-PCR: miR expression evaluated with qRT-PCR using Hs_miR-181a primer 5′-AACAUUCAACGCUGU-CGGUGAGU-3′ (SEQ ID NO:198) and 1280: 5′UCCCACCGCUGCCACCC-3′ (SEQ ID NO:199) (Qiagen). The comparative threshold cycle (Ct) method, i.e., 2-ΔΔCt method is used to calculate fold amplification. For quantification of mRNA, total RNA was isolated from chondrocytes, CS-1 cells, and xenograft mouse tumors using the RNAqueous® Kit (Ambion, Austin, Tex., USA). SYBR real-time PCR was carried out using two-step real-time qRT-PCR (Qiagen) with normalization to 18S rRNA (18S). The comparative threshold cycle (Ct) method, i.e., the 2-ΔΔCt method, was used for the calculation of fold amplification. Each experiment was evaluated with three PCR reactions and each experiment was repeated three times, the sample size necessary to maintain power at 0.80 to detect a 50% decrease with an alpha of 0.025 (one-tailed t-test).
ELISA, western blot, qRT-PCR, and cell proliferation assays were performed as described above.

Met = test: Western blot of Met protein in chondrosarcoma cells; format: cell-based, human; details: vs miRNA control; FIG. 5
Source text: Western blot: Cell or tumor lysates containing forty μg of protein were separated via SDS-PAGE (Bio-Rad, Hercules, Calif.) and probed with antibodies for VEGF (VEGFA), MMP-1, SSX, and actin (Santa Cruz Biotechnology, Santa Cruz, Calif.). The fluorescent signals were detected using a fluorescently-labeled secondary goat anti-rabbit antibody (Alexa Fluor 680) (Molecular Probes, Eugene, Oreg.) and analyzed on Licor Odyssey Scanner (LI-COR Biosciences, Lincoln, Nebr.). Western Blot analyses were performed as previously described with specific antibodies (IMGNEX, San Diego, Calif.) and actin antibody (Santa Cruz Biotechnology, Santa Cruz, Calif.). Protein concentrations were determined using the Quick Start Bradford protein assay (Bio-Rad).

[2] = system: placental growth factor (PLGF); test: Angiogenesis antibody array in chondrosarcoma cells (PLGF); format: cell-based, human; details: vs miR control; FIG. 3
Procedure: (§2) Angiogenesis antibody array: Human Angiogenesis Array Kit is a membrane-based sandwich immunoassay. Samples are mixed with a cocktail of biotinylated detection antibodies and then incubated with the array membrane which is spotted in duplicate with capture antibodies to specific target proteins. Captured proteins are visualized using chemiluminescent detection reagents. The signal produced is proportional to the amount of bound analyte. It is sensitive and economical tool to simultaneously detect the relative levels of 55 angiogenesis-related proteins in a single sample.

thrombospondin-1 (TSP-1) = test: Angiogenesis antibody array in chondrosarcoma cells (TSP-1); format: cell-based, human; details: vs miR control; FIG. 3
Procedure: as §2

VEGF [3] = test: Angiogenesis antibody array in chondrosarcoma cells (VEGF); format: cell-based, human; details: vs miR control; FIG. 3
Procedure: as §2

## c1cc(CN2CCCNCCNCCCNCC2)ccc1CN1CCCNCCNCCCNCC1 [AMD3100, plerixafor]
metastasis
  metastasis in mice: reduce metastasis

## miR-34a: miR-34a mimic, the same sequence as miR-34a (guide AACAUUCAACGCUGUCGGUGAGU; synthetic mimic, further chemistry not given here)
Chondrosarcoma cells; miR-34a vs control miR, FIG. 9, p<0.001
  chondrosarcoma cell growth rates over time: significantly decreased growth rates over time
VEGF [1]; 20 nM, vs control miR, control anti-miR or anti-miR-34a, FIG. 7A-7C, p<0.02, n=3
  VEGF protein expression (ELISA, western blot): significantly decreased expression of VEGF protein
VEGF [1]; secreted VEGF, vs control miR, FIG. 8, p<0.001
  VEGF expression over time (ELISA): decreased VEGF expression over time
SSX1
  SSX1 mRNA expression (qRT-PCR): decreased SSX1 mRNA expression

## miR-126: miScript miRNA mimic of miR-126; mature sequence SEQ ID NO: 188 CAUUAUUACUUUUGGUACGCG (listed as RNA, chemistry not given here)
Chondrosarcoma cells; 20 nM miR-126 vs control miR, FIG. 6
  chondrosarcoma cell growth over time: grew more slowly over time
Met
  Met protein expression (western blot): expression of Met protein decreased
[2]
  PLGF expression (angiogenesis antibody array): reduces the expression
thrombospondin-1 (TSP-1)
  TSP-1 expression (angiogenesis antibody array): reduces the expression
VEGF [1]; 20 nM miR-126, 80 nM anti-miR-126, normoxic and hypoxic conditions, FIG. 2 bottom
  VEGF expression after transient transfection (ELISA): reduced VEGF expression
VEGF [1]; 10-80 nM of miR-126, normoxia and hypoxia (2% oxygen), FIG. 2 top
  VEGF expression (ELISA): inhibited VEGF expression in a dose-dependent manner
VEGF [3]
  VEGF expression (angiogenesis antibody array): reduces the expression

Reference: US11364258B2, “Methods for treating chondrosarcoma using microrna(miR)” (Rhode Island Hospital, priority 2016, dated 2022)
